The target in one assay is PDGFRβ (Rattus norvegicus (Rat), UniProt Q05030). The assay can be described thus: PDGFRβ Cellular Assay (PDGFRb P-Y751 HTRF in A10 cells stimulated with PDGF-BB). The assay is classed as cell-based. Put shortly:
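Phospho-Y751 PDGFRβ was measured by HTRF in lysates of A10 rat cells. Cells received compound for 3 hours before PDGF-BB stimulation (100 ng/mL working stock).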

The target of assay [1] is Tb-labeled inactive PDGFRβ (Homo sapiens (Human), UniProt P09619). The assay can be described thus: PDGFRβ LanthaScreen Assay. Format: binding. The note with it: read-out: PDGFR Lantha IC50. On the technique in general: TR-FRET usually uses a lanthanide donor and a delayed reading to cut background.
Chain of Tb-labeled inactive PDGFRβ (P09619 33-1106): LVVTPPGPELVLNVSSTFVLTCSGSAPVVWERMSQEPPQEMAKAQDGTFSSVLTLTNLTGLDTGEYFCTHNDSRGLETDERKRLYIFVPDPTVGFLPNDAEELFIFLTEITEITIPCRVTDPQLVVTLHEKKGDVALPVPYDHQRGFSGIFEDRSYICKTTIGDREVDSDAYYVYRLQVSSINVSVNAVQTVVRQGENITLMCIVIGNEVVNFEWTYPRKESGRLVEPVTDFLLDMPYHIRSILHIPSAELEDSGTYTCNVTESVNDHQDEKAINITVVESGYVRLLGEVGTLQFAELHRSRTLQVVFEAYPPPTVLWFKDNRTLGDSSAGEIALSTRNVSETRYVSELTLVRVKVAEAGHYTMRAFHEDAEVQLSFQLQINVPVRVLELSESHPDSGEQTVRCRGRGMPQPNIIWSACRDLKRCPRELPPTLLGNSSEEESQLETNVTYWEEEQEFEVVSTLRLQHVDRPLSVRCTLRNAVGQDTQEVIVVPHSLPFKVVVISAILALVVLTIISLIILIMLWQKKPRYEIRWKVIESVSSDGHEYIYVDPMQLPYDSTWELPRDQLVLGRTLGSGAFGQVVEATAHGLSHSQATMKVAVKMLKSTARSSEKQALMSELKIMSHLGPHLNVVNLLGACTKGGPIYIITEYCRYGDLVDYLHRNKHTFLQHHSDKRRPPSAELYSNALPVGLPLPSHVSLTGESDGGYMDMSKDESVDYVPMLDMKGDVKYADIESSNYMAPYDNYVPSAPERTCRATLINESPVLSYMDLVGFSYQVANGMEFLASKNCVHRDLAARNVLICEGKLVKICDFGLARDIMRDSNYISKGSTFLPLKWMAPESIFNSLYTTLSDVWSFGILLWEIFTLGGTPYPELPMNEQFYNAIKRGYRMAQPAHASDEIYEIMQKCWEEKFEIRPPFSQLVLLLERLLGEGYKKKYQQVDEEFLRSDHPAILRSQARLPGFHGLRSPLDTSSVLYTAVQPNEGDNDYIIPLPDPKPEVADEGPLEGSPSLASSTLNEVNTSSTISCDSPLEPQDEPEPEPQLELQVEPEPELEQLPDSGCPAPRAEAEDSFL
Assay [2] concerns the target His6-TEV-PDGFRβ (557-1016) (Homo sapiens (Human), UniProt P09619). The assay can be described thus: PDGFRβ HTRF Assay. The note with it: read-out: PDGFR HTRF IC50. The assay is classed as biochemical. Put shortly:
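HTRF KinEASE-TK readout (665/620 nm ratio) of TK-biotin substrate phosphorylation by His-tagged PDGFRβ kinase domain. Enzyme and inhibitor preincubated 30 min, then ATP/substrate added for 3 h at room temperature before 60 min EDTA quench/detection.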

Read-outs that look alike come from different tables or passages of the source.

Chain of PDGFRβ (Q05030 32-1097): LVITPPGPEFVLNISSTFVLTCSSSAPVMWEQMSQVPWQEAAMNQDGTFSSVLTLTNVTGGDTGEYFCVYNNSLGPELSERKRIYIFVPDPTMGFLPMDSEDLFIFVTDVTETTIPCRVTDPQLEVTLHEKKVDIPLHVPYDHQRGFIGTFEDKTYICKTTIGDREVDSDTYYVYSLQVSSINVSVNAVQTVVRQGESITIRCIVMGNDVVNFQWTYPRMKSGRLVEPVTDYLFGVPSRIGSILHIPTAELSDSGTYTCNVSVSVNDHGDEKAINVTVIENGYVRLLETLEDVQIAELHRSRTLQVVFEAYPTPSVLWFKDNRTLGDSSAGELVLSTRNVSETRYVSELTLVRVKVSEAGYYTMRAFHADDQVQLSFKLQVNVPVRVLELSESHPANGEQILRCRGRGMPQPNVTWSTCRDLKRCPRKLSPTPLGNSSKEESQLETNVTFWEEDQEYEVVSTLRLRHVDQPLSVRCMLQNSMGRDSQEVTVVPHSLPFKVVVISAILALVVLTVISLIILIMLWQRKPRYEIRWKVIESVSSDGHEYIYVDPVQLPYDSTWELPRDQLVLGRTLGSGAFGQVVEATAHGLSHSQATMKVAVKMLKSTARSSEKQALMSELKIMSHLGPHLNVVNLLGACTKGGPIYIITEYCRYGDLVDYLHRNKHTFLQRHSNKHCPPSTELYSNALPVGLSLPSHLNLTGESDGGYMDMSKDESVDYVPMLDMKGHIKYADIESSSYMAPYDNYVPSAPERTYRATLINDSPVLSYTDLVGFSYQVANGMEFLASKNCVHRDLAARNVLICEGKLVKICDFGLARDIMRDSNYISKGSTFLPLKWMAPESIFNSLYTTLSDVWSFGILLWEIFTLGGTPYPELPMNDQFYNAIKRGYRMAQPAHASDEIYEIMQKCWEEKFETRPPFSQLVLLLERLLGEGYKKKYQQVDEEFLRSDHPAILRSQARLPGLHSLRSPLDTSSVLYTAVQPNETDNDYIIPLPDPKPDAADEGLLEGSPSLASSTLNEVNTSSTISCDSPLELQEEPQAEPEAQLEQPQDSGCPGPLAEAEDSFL
Chain of His6-TEV-PDGFRβ (557-1016) (P09619 557-1016): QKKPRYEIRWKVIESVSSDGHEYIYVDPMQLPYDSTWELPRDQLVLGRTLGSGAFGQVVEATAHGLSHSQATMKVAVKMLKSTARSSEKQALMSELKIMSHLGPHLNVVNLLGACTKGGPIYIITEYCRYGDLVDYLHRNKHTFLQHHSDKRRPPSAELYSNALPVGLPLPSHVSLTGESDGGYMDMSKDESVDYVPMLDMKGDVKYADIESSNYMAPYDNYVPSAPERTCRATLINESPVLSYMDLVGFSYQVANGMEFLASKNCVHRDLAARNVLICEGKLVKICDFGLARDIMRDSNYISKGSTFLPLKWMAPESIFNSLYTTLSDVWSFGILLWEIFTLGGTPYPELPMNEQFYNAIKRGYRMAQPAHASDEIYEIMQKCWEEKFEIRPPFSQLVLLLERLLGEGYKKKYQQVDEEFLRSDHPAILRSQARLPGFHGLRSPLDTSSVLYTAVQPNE

As a reminder, the IC50 is the concentration at which inhibition is half-maximal. As to `Cn1cc(-c2cn3ncc(C(=O)Nc4cc(C(=O)NCCN5CCCC5(C)C)ccc4F)c3s2)cn1` [Example 207, N-(5-((2-(2,2-dimethylpyrrolidin-1-yl)ethyl)carbamoyl)-2-fluorophenyl)-2-(1-methyl-1H-pyrazol-4-yl)pyrazolo[5,1-b]thiazole-7-carboxamide], the IC50 at PDGFRβ (read-out: PDGFR Cellular IC50) worked out at 3.3 nM; in assay [1], 4.4 nM; in assay [2] it was 0.3 nM.
On the same counts, the results for `Cc1ncc(C(=O)NCCN2CCCC2)cc1NC(=O)c1cnn2cc(-c3cnn(C)c3C)sc12` [Example 220, 2-(1,5-Dimethyl-1H-pyrazol-4-yl)-N-(2-methyl-5-((2-(pyrrolidin-1-yl)ethyl)carbamoyl)pyridin-3-yl)pyrazolo[5,1-b]thiazole-7-carboxamide] are 59 nM, 5 nM and 0.2 nM.
On the same counts, the results for `Cc1cc(C(=O)NCCN2CCCC2(C)C)sc1NC(=O)c1cnn2cc(-c3cnn(C)n3)sc12` [Example 186, N-(5-((2-(2,2-dimethylpyrrolidin-1-yl)ethyl)carbamoyl)-3-methylthiophen-2-yl)-2-(2-methyl-2H-1,2,3-triazol-4-yl)pyrazolo[5,1-b]thiazole-7-carboxamide] are 593 nM, 2250 nM and 41.4 nM.
For the molecule `Cc1ncc(NC(=O)OCC(C)N2CCCC2)cc1NC(=O)c1cnn2cc(-c3cnn(C)c3)sc12` (stereo not drawn) [Example 248, 2-(pyrrolidin-1-yl)propyl (6-methyl-5-(2-(1-methyl-1H-pyrazol-4-yl)pyrazolo[5,1-b]thiazole-7-carboxamido)pyridin-3-yl)carbamate], the IC50 is 31.3 nM at PDGFRβ (read-out: PDGFR Cellular IC50), 10.2 nM in assay [1] and 0.4 nM in assay [2].
Turning to `Cc1cc(C(=O)NCCN2[C@H](C)CCC[C@@H]2C)sc1NC(=O)c1cnn2cc(-c3cnn(C)c3)sc12` [Example 198, N-(5-((2-((2S,6R)-2,6-dimethylpiperidin-1-yl)ethyl)carbamoyl)-3-methylthiophen-2-yl)-2-(1-methyl-1H-pyrazol-4-yl)pyrazolo[5,1-b]thiazole-7-carboxamide], the IC50 at PDGFRβ (PDGFR Cellular IC50) was 105 nM; in assay [1], 111 nM; in assay [2] it was 2 nM.
Consider `Cc1ncc(C(=O)NCCN2C[C@H]3CC[C@@H]2C3)cc1NC(=O)c1cnn2cc(-c3cnn(C)c3C)sc12` [Example 208, N-(5-((2-((1R,4S)-2-azabicyclo[2.2.1]heptan-2-yl)ethyl)carbamoyl)-2-methylpyridin-3-yl)-2-(1,5-dimethyl-1H-pyrazol-4-yl)pyrazolo[5,1-b]thiazole-7-carboxamide], for which the IC50 came to 96 nM on PDGFRβ (read-out: PDGFR Cellular IC50), 4.3 nM in assay [1] and 0.3 nM in assay [2].
As for `COc1ncccc1-c1cn2ncc(C(=O)Nc3cc(NC(=O)CN4CCCC4(C)C)cnc3C)c2s1` [Example 233, N-(5-(2-(2,2-dimethylpyrrolidin-1-yl)acetamido)-2-methylpyridin-3-yl)-2-(2-methoxypyridin-3-yl)pyrazolo[5,1-b]thiazole-7-carboxamide], the IC50 was determined as 1.3 nM on PDGFRβ (read-out: PDGFR Cellular IC50), 1.1 nM in assay [1] and 0.2 nM in assay [2].
On the same counts, the results for `Cc1cc(C(=O)NCCN2CCC(C)(C)C2)sc1NC(=O)c1cnn2cc(-c3cnn(C)c3)sc12` [Example 189, N-(5-((2-(3,3-dimethylpyrrolidin-1-yl)ethyl)carbamoyl)-3-methylthiophen-2-yl)-2-(1-methyl-1H-pyrazol-4-yl)pyrazolo[5,1-b]thiazole-7-carboxamide] are 72.3 nM, 319 nM and 7.3 nM.
On the same counts, the results for `Cc1ncc(NC(=O)CN2CCCC2(C)C)cc1NC(=O)c1cnn2cc(-c3cnn(C)c3)sc12` [Example 13, N-(5-(2-(2,2-dimethylpyrrolidin-1-yl)acetamido)-2-methylpyridin-3-yl)-2-(1-methyl-1H-pyrazol-4-yl)pyrazolo[5,1-b]thiazole-7-carboxamide] are 3.3 nM, 5 nM and 0.5 nM.

(Values after patent publication US20240109917A1 (ACTELION PHARMACEUTICALS LTD, priority 2020, published 2024).)
